# Structures can show the parent of a compound that is named as a salt.
# Columns and labels:
# Format in all cases: in vivo
# Dog Tooth-pulp = Dog Tooth-pulp Stimulation test (analgetic action); settings: Canis lupus familiaris, po, read-out: Minimum effective dose, Dog Tooth-pulp Stimulation
# From the text: (§1) Particularly preferred meanings for the groups R1 and R2 are hydrogen C1-4 alkyl, in particular methyl, or benzyl. Particularly preferred meanings for R3 are hydrogen or C1-4alkyl in particular methyl. Particularly preferred meanings for R5 and R6 are hydrogen, C1-4 alkyl substituted by C1-4 alkylamino or by C1-4 dialkylamino or by phenyl or by 4-fluorobenzoyl or in which the groups together with the adjacent nitrogen atom form a morpholino or piperidino moiety; another preferred group for R5 or R6 is carbamoyl (--CONH2). Specific preferred compounds and salts are those the preparation of which is described in the Examples. The compounds of the invention have marked analgetic activity and are devoid of respiratory depressant action. […] These characteristics are often associated with non-narcotic analgetics in man. For example, in Table I, the compound 1,2,3,3aα,8,8aα-hexahydro-N-methylcyclopent[a]inden-1α-amine, maleate (AH 9197) and the diastero-isomer 1,2,3,3aα,-8,8aα-hexahydro-N-methylcyclopent[a]inden-1β-amine maleate (AH 8538) are compared with codeine in standard pharmacological tests for evaluating analgetic action. The N-ethyl analogue of AH 9197 (N-ethyl-1,2,3,3aα,8,8aα-hexahydrocyclopent[a]inden-1α-amine) maleate (AH 9903) is also included.
# [1] = Phenylquinone Writhing test (analgetic action); settings: po
# From the text: as §1
# [2] = Hot plate test (analgetic action)
# From the text: as §1
SMILES,minimal effective dose (Dog Tooth-pulp) [mg/kg],ED50 [1] [mg/kg],ED50 ([2]; po) [mg/kg],ED50 ([2]; sc) [mg/kg]
"COc1ccc2c3c1O[C@H]1[C@@H](O)C=C[C@H]4[C@@H](C2)N(C)CC[C@@]341 [Codeine, codeine, reference compound]",3.3,5.8,15.5,11.8
"CCN[C@H]1CC[C@@H]2c3ccccc3C[C@H]12 (relative stereo) [Ex. 2, N-Ethyl-1,2,3,3aα,8,8aα-hexahydrocyclopent[a]inden-1α-amine, maleate]",< 5,4.6,9.5,2.2
"CN[C@H]1CC[C@@H]2c3ccccc3C[C@H]12 (relative stereo) [Ex. 1, 1,2,3,3aα,8,8aα-Hexahydro-N-methylcyclopent[a]inden-1α-amine, maleate]",3.7,7.4,10,0.44
"CN[C@@H]1CC[C@@H]2c3ccccc3C[C@@H]21 (relative stereo) [Ex. 3, 1,2,3,3aα,8,8aα -Hexahydro-N-methylcyclopent[a]inden-1β-amine, maleate]",5,11.9,–,15
